For 8 molecules, GI50 and TGI results are on record in PubChem BioAssay (NCI).

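In this assay, cells in 96-well plates receive the compound at five concentrations for 48 hours. Endpoints are linearly interpolated between the surrounding concentrations. GI50 marks 50% less growth. At the TGI there is no net growth.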

What all share (test): growth of human tumour cells (NCI), 48 h
The test system of test [1] is RPMI-8226 leukemia.
For test [2], the system named is U251 CNS.
The test system of test [3] is HL-60(TB) leukemia.
For test [4], the system named is HOP-62 NSCLC.
In test [5] the test system is K-562 leukemia.
In test [6] the test system is NCI-H23 lung.
Test [7] has as its system SK-OV-3 ovarian.
The test system of test [8] is CCRF-CEM leukemia.
In test [9] the test system is UACC-257 melanoma.
Test [10] deals with NCI-H522 lung.

For the molecule `C#CCC(Cc1cnc2nc(N)nc(N)c2n1)c1ccc(C(=O)N[C@@H](CCC(=O)O)C(=O)O)cc1` (stereo not given in full), the GI50 in [1] is under 0.01 µM; in test [2], under 0.01 µM; in test [3] it was under 0.01 µM; in test [4], under 0.01 µM; in test [5], under 0.01 µM; in [6] it was under 0.0174 µM. In addition, the GI50 in [7] was under 0.01 µM; in test [8], under 0.01 µM; in test [9], 0.0243 µM; in [10], under 0.01 µM. Also, the TGI in test [1], in [2], in [3], in [4], in test [5] and in test [6] was over 100 µM each time. For the same molecule, the TGI in test [7], in [8], in test [9] and in test [10] was over 100 µM each time.
`CC(C)(C)c1nn(-c2ccccc2)c2c1C(=O)CSC(c1ccccc1Cl)N2` (stereo not given): the GI50 is 3.02 µM in test [1]; 2.41 µM in [2]; 2.28 µM in test [3]; 4.47 µM in test [4]; 0.583 µM in [5]; 2.39 µM in test [6]. For the same molecule, the GI50 was 1.78 µM in test [7], 2.48 µM in test [8], 2.78 µM in [9] and 0.65 µM in [10]. Moreover, the TGI in test [1] is 19.3 µM; in test [2] it was 15.5 µM; in test [3], 10.2 µM; in [4], 21.8 µM; in test [5] it was 14.9 µM; in test [6] it was 17.9 µM. Also, the TGI in test [7] came to 6.17 µM; in [8], 13.5 µM; in test [9], 14.7 µM; in test [10] it was 7.34 µM.
As to `Cn1c(/C=C(\C#N)c2ccccc2)nc2c(N3CCOCC3)nc(Cl)nc21`, the GI50 was 0.254 µM in test [1]; 1.47 µM in test [2]; 0.462 µM in [3]; 1.58 µM in [4]; 0.348 µM in [5]; 1.63 µM in test [6]. The GI50 in [7] was 4.54 µM; in test [8], 0.295 µM; in test [9], 1.43 µM; in test [10], 0.74 µM. Moreover, the TGI was found to be 0.804 µM in test [1]; 2.97 µM in [2]; 2.61 µM in test [3]; 3.51 µM in [4]; 3.46 µM in [5]; 3.2 µM in [6]. In addition, the TGI was 16.2 µM in test [7], 0.971 µM in [8], 3.03 µM in [9] and 2.47 µM in test [10].
On to `O=c1nc2n(-c3ccc(Cl)cc3)c3ccc([N+](=O)[O-])cc3cc-2c(=O)[nH]1`, for which the GI50 in test [1] is 12.3 µM; in test [2], 8.15 µM; in test [3] it was 9.55 µM; in [4], 6.01 µM; in test [5], 32.6 µM; in [6], 17.7 µM. For the same molecule, the GI50 is 41.7 µM in test [7], 9.37 µM in test [8], 23.4 µM in test [9] and 22.2 µM in test [10]. The TGI in [1] was 47.7 µM; in test [2], 88.7 µM; in [3] it was over 100 µM; in test [4], 22.8 µM; in test [5], over 100 µM; in [6], 34 µM. In addition, the TGI was over 100 µM in test [7], over 100 µM in test [8], 62.5 µM in [9] and 57.2 µM in test [10].
Consider `CC1=C2C[C@H]3[C@@H](CC[C@@H]4CC(NS(C)(=O)=O)CC[C@@]43C)[C@@H]2CC[C@@]2(C1)O[C@@H]1C[C@H](C)CN[C@H]1[C@H]2C` (stereo not given in full), for which the GI50 in [1] was 7.62 µM; in test [2] it was 6.92 µM; in test [3] it was 6.12 µM; in test [4] it was 11.3 µM; in [5], 4.25 µM; in test [6] it was 16.3 µM. Moreover, the GI50 is 8.49 µM in test [7], 7.71 µM in test [8], 6.28 µM in [9] and 14.3 µM in test [10]. In addition, the TGI in [1] is 29.5 µM; in test [2] it was 20.8 µM; in test [3], 21.4 µM; in test [4] it was 24.8 µM; in test [5], 31.6 µM; in test [6] it was 33.2 µM. The TGI is 21.2 µM in test [7], 28.4 µM in test [8], 18.9 µM in test [9] and 29 µM in [10].
`BrC1=CC=C2NC=CC3=CC=NC1C32` (stereo not given): the TGI is 37.8 µM in [1]; over 100 µM in test [2]; 12.1 µM in test [3]; over 100 µM in test [4]; 52.8 µM in [5]; over 82.8 µM in test [6]. The TGI is over 100 µM in test [7], 28.6 µM in [8], 98.8 µM in test [9] and 27.3 µM in test [10].
For the molecule `CC(C)[C@H](CO)Nc1nc(Nc2ccc(C(=O)NCCNS(=O)(=O)c3cccc4c(N(C)C)cccc34)c(Cl)c2)c2ncn(C(C)C)c2n1`, the GI50 was 2.14 µM in test [1]; 2.72 µM in test [2]; 2.65 µM in [3]; 3.69 µM in test [4]; 3.92 µM in test [5]; 3 µM in test [6]. The GI50 in test [7] is over 100 µM; in [8], 3.01 µM; in test [9], 2.66 µM; in test [10] it was 2.19 µM. The TGI in test [1] was 5.63 µM; in [2] it was over 100 µM; in [3], 7.43 µM; in test [4], over 100 µM; in test [5] it was over 100 µM; in test [6] it was over 36.2 µM. Also, the TGI in [7] is over 100 µM; in test [8], over 100 µM; in test [9], over 100 µM; in [10] it was 6.1 µM.
Take `Clc1cc(Cc2cc(Cl)c(Cl)c3c2OCOC3)c2c(c1Cl)COCO2`: the TGI in test [1] was over 100 µM; in test [2], over 100 µM; in [3], over 100 µM; in [4], 63 µM; in [5] it was over 100 µM; in test [6], over 100 µM. Further, the TGI was 64.4 µM in test [7], over 100 µM in test [8], over 100 µM in test [9] and over 100 µM in test [10].
